Test results from ChEMBL document CHEMBL1201862, “PubChem BioAssay data set” (2004).
Counter-ions that a name gives are not always drawn. Activity calls are given as the source filed them.

Key:
[1] = viability of uninfected HEp-2 cells – cell-based, HTS, cytotoxicity control for RSV inhibitor project, dose response (AID 2410); format: functional; details: human respiratory syncytial virus
Protein skinhead-1 = target: T1, Protein skinhead-1 (Caenorhabditis elegans, UniProt P34707); format: functional
T1 sequence (P34707 whole entry): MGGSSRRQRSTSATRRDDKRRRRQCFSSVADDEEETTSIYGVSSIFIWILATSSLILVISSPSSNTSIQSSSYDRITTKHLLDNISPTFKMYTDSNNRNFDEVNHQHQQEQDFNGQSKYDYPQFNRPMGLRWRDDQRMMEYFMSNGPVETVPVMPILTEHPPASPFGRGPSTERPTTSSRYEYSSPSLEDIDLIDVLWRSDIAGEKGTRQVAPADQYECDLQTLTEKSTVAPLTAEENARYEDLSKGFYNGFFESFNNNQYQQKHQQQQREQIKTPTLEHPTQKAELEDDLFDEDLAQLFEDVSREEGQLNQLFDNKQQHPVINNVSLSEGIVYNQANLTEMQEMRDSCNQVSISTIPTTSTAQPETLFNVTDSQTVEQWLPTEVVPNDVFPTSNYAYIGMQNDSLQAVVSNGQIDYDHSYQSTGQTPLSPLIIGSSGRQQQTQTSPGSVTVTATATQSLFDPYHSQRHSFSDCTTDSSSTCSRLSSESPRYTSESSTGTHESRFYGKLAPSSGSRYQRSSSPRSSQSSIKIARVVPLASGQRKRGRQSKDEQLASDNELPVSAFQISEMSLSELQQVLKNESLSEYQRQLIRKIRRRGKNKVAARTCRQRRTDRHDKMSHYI

cells = format: functional
[2] = target: FAD-linked sulfhydryl oxidase ALR (Homo sapiens, UniProt P55789); assay: ALR-catalysed DTT oxidation blockers – biochemical, H2O2 detection, luminescence, cherry-pick, dose response (AID 493248)
[3] = target: T2, Heat shock factor protein 1 (Mus musculus, UniProt P38532); assay: enhancement of HSF1-driven luciferase signal – cell-based, NIH3T3, luminescence, dose retest, confirmation (AID 435004); format: functional;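 also: stress induced by proteasome inhibitor MG132 added 30 min after compound; luciferase reporter driven by HSF1 response element in NIH3T3 cells; actives raise luminescence as potentiators of the MG132 stress response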
T2 sequence (P38532 whole entry): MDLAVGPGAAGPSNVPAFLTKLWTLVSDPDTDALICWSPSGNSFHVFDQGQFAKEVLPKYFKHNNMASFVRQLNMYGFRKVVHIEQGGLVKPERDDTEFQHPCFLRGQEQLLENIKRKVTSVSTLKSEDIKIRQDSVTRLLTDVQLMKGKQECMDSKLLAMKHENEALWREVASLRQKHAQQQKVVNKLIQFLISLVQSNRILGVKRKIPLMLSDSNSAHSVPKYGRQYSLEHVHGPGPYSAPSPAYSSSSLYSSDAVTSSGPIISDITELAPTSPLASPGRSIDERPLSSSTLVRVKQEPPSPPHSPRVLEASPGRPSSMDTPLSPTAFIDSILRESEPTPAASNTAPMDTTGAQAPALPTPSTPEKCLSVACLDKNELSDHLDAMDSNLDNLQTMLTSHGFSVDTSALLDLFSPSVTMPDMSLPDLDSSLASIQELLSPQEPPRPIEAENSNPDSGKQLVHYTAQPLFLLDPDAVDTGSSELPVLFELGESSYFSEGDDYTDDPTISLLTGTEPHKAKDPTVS

[4] = microbe, parasite or virus in culture; format: functional; details: Mycobacterium tuberculosis
[5] = Luminescence Cell-Based Dose Response HTS to Identify Activators of Luciferase Translation or Activity in H4 […] Cells. [Related pubchem assays: 1829 (Project Summary), 1814 (Primary HTS)]; format: functional
Cytochrome P450 2C9 = Cytochrome P450 2C9 (Homo sapiens, UniProt P11712)
Cytochrome P450 1A2 = target: T3, Cytochrome P450 1A2 (Homo sapiens, UniProt P05177);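 also: PubChem cytochrome P450 panel assay, CYP1A2 panel member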
T3 sequence (P05177 whole entry): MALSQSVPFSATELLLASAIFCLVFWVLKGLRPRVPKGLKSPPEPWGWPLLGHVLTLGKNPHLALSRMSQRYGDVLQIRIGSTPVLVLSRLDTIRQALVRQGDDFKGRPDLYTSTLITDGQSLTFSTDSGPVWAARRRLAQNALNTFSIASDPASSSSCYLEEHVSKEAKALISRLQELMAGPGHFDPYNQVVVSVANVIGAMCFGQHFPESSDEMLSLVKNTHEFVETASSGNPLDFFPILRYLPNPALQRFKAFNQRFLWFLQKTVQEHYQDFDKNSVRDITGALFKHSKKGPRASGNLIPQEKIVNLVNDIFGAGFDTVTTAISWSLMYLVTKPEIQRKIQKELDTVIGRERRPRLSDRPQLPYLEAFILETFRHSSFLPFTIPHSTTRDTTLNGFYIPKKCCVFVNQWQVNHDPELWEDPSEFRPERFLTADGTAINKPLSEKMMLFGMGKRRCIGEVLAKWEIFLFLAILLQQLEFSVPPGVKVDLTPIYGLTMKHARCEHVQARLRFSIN

Cytochrome P450 3A4 = Cytochrome P450 3A4 (Homo sapiens, UniProt P08684);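 also: CYP3A4 tested as one member of a cytochrome P450 panel screen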
[6] = viability of HCT116 lacking mutant beta-catenin – cell-based, human colon tumor, dose response (AID 1045); format: functional;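 also: HCT116 colon tumor cells with beta catenin knocked out; cells exposed to compound for 60 hours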
[7] = viability of PTEN-deleted HCT116 cells – cell-based, HCT116 PTEN knockout, dose response (AID 1047); format: functional;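 also: HCT116 colon tumor cells with PTEN knocked out; cells exposed to compound for 60 hours before readout; potency for loss of cell viability measured by luminescence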
INS1 = assay: INS-1E survival protection against cytokine death – cell-based, luminescence, retest, dose response (AID 449756); format: functional; details: Rattus norvegicus;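 also: cell death triggered by IL-1 beta plus TNF-alpha plus IFN-gamma mixture; protective hits raise ATP signal compared with cytokine alone wells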
[8] = target: T4, Rac GTPase-activating protein 1 (Homo sapiens, UniProt Q9H0H5); assay: blockers of MgcRacGAP-driven Rac1 GTP hydrolysis – biochemical, ADP Hunter fluorescence, primary and confirmatory, confirmation (AID 624330); format: functional
T4 sequence (Q9H0H5 whole entry): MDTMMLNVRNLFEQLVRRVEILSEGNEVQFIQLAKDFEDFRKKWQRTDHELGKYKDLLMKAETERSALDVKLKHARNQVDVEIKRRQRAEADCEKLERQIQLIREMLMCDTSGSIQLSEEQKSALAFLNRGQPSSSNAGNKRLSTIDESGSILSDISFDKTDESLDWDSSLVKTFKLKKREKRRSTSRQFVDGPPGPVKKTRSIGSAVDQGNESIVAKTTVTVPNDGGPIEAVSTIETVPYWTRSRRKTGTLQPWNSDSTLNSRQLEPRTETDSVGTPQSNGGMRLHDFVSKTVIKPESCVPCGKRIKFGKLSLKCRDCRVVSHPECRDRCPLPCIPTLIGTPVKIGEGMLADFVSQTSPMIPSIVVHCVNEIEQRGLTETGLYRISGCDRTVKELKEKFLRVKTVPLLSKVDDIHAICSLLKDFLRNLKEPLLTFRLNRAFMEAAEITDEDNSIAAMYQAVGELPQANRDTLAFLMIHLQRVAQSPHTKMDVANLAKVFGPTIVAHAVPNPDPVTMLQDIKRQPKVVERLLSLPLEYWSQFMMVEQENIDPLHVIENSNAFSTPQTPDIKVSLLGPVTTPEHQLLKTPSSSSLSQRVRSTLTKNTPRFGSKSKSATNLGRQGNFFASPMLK

Chain of FAD-linked sulfhydryl oxidase ALR (P55789 whole entry): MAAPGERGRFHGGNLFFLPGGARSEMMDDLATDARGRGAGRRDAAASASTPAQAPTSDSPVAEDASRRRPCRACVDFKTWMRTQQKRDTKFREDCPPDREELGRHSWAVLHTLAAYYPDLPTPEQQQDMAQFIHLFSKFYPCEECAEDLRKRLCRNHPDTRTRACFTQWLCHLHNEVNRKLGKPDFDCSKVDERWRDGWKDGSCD
Chain of Cytochrome P450 2C9 (P11712 whole entry): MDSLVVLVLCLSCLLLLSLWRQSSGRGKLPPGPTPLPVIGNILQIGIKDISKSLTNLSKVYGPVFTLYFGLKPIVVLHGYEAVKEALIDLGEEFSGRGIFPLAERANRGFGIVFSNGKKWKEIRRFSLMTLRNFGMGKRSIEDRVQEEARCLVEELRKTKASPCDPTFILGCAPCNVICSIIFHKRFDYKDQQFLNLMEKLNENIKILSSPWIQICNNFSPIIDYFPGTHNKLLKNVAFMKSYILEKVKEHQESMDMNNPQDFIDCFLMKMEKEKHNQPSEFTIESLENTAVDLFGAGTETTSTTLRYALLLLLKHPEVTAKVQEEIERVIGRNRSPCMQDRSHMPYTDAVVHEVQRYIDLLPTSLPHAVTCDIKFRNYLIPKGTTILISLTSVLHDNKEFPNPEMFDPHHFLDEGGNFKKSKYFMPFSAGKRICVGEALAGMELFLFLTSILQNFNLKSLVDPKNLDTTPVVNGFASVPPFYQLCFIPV
Chain of Cytochrome P450 3A4 (P08684 whole entry): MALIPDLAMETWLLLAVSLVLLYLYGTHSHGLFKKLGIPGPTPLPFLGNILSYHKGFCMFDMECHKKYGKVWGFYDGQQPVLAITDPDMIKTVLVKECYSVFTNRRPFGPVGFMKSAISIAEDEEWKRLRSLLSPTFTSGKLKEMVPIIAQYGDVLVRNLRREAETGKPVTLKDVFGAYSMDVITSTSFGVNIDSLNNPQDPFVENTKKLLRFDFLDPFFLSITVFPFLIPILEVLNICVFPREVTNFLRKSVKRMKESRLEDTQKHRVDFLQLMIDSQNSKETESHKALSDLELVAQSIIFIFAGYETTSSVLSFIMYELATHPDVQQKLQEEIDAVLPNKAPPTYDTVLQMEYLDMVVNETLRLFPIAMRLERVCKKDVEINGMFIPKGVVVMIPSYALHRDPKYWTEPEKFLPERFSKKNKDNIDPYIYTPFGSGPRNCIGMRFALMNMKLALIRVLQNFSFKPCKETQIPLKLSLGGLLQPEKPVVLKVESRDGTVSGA

Cc1cccc(NC(=O)Cc2coc3ccc4ccccc4c23)n1
CC50 [1]: 33.8 µM (active)

COc1ccc(CN2CCN(c3ccccc3F)CC2)cc1O
IC50 (Protein skinhead-1): > 100 µM (inactive)

COc1ccc(C(=O)OCn2nnc3ccccc3c2=O)cc1[N+](=O)[O-]
IC50 (cells): 7.55 µM (active)

O=C(NCc1cccs1)C(=O)NCC(c1ccco1)N1CCN(c2ccccc2)CC1 (stereo not drawn)
AC50 [2]: 0.01 µM (active)

CC(=O)c1c(C)[nH]c(C(=O)Nc2cccc(C)n2)c1C
EC50 [3]: > 260 µM (inactive)

O=C1C2CCCCC2C(=O)N1Cc1ccccc1 (stereo not drawn)
EC50 [3]: > 260 µM (inactive)

COc1cc(NC(=O)c2ccc(C(C)(C)C)cc2)c(OC)cc1NC(=O)CN1CCCCC1
CC50 [4]: > 40 µM (active)

O=C(CCNc1ccc(Cl)cc1)c1cccs1
IC50 (cells): 25.5 µM (active)

CC(C)CC(NS(=O)(=O)c1ccc2c(c1)oc(=O)n2C)C(=O)NC1CCCc2ccccc21 (stereo not drawn)
EC50 [3]: > 260 µM (inactive)

C=Cc1cccc(NC(=O)COc2ccccc2)c1
IC50 (cells): > 50 µM (active)

COC(=O)C1CCN(C(=O)Cc2c(OC)ccc3cc(Br)ccc23)CC1
EC50 [3]: 68.2 µM (active)

O=C(C1=C[C@@H](C2CC2)C[C@@H](OCc2ccc(CO)cc2)O1)N1CCN(Cc2ccccc2)CC1
EC50 [3]: > 260 µM (inactive)

Nc1n[nH]c(SCC(=O)Nc2ccc([N+](=O)[O-])cc2Br)n1
EC50 [3]: > 260 µM (inactive)

Cc1ccc(NC(=S)N(CCCN2CCCC2)Cc2cccn2Cc2ccc(Cl)cc2)cc1C
CC50 [4]: 17.7 µM (active)

N#Cc1c(-c2ccc(Cl)cc2)ccn2nc(C3CCCCC3)nc12
EC50 [5]: 6.98 µM (active)

COc1ccc(C2(C)NC(=O)N(CC3CCCCC3)C2=O)cc1 (stereo not drawn)
EC50 [3]: > 260 µM (inactive)

CSc1nsc(/C=C/Nc2ccc(O)cc2C)c1C#N
CC50 [4]: > 40 µM (active)

COC(=O)c1ccc(-c2ccco2)n1Cc1nc(-c2ccc(OC)c(OC)c2)oc1C
CC50 [1]: 34 µM (active)

COc1ccc(-c2ccnc3nc(N4CCN(c5ccccc5)CC4)nn23)cc1
CC50 [4]: > 40 µM (active)

OCCOCCn1c(CCNc2nc(-c3ccc(Cl)cc3)cs2)nc2cc(Cl)c(Cl)cc21
CC50 [1]: 14.3 µM (active)

Nc1n[nH]c(N2CCN(c3ccc(Cl)cc3)CC2)n1
AC50 [2]: 0.325 µM (active)

CCOC(=O)c1cnn(-c2ccccc2)c1-n1cccc1C(=O)C(=O)Nc1ccccc1C(F)(F)F
AC50 (Cytochrome P450 2C9): 5.62 µM (inconclusive)
AC50 (Cytochrome P450 1A2): 14.1 µM (inconclusive)
CC50 [1]: 24.1 µM (active)
AC50 (Cytochrome P450 3A4): 4.47 µM (inconclusive)

CCOC(=O)c1cc(-c2cccc([N+](=O)[O-])c2)on1
IC50 (cells): 10.3 µM (active)

CCN(CC)Cc1c(-c2ccccc2)nc2ccc(C)cc2c1O
AC50 [2]: 1.77 µM (active)

CCCCn1c(SCc2ncc(-c3ccccc3)o2)nc2cc(S(N)(=O)=O)ccc21
EC50 [6]: 27.4 µM (active)
CC50 [4]: > 40 µM (active)
EC50 [7]: 26 µM (active)

Cc1ccccc1-c1cc(=O)c2c(O)cccc2o1
EC50 [3]: > 260 µM (inactive)

COc1ccc(C(=O)COC(=O)COc2ccc(C)c(C)c2)cc1
IC50 (cells): > 50 µM (active)

COc1ccccc1N1CCN(C(=O)CCNS(=O)(=O)c2cc(Br)cnc2N)CC1
AC50 [2]: 11.8 µM (active)

COc1cc(C2NC(=O)NC(C)=C2C(=O)OC2CCCCC2)cc(Cl)c1O (stereo not drawn)
EC50 [3]: > 260 µM (inactive)

CCOc1ccc2nc(NC(=O)c3cccc(-c4cc5ccccc5oc4=O)c3)sc2c1
AC50 (INS1): 3.24 µM (active)

COc1ccc(/C=C/C(=O)OC2CCCN(C)C2)cc1 (stereo not drawn)
EC50 [3]: > 260 µM (inactive)

O=C1CCC(/C=C/c2ccccc2)=NN1Cc1ccc(Cl)c(Cl)c1
CC50 [1]: 24.4 µM (active)

CCOC(=O)CC1NCCc2c1[nH]c1ccc(OC)cc21 (stereo not drawn)
EC50 [3]: > 260 µM (inactive)

CC(C)Cc1nnc(NC(=O)CCS(=O)(=O)c2ccc(Cl)cc2)s1
IC50 (cells): 36 µM (active)

COc1ccccc1Nc1nc(C2(C)CCC(=O)O2)cs1 (stereo not drawn)
AC50 [2]: 4.38 µM (active)

COc1ccccc1-c1ccc(SCC(=O)Nc2cc(C)on2)nn1
EC50 [3]: > 260 µM (inactive)

Cc1cc(C(=O)C(C)OC(=O)c2ccc(NC(=O)CC#N)cc2)c(C)n1-c1ccc(OC(F)F)cc1 (stereo not drawn)
AC50 (INS1): 4.26 µM (active)

COc1cccc(CNC(=O)CCNC(=O)N2CCn3c2nc2ccccc23)c1
AC50 [2]: 1.09 µM (active)

C/C(=N\NC(=O)c1ccoc1C)c1ccccc1O
AC50 (INS1): 3.12 µM (active)

COc1cccc(/C=N/N2C(=O)NC3(CCCCC3)C2=O)c1O
AC50 [2]: 9.34 µM (active)

CCOc1cc(/C=N/NC(N)=O)cc(Br)c1OCc1ccccc1
CC50 [1]: 19.4 µM (active)

Oc1ccccc1/N=C/c1ccc[nH]1
CC50 [4]: > 40 µM (active)

COc1cc(/C(C)=N/N2CCN(Cc3ccc(C)cc3)CC2)ccc1O
IC50 [8]: 271 µM (active)
AC50 [2]: 7.66 µM (active)

C/N=c1\scc(-c2ccccc2Br)n1/N=C/c1ccc[nH]1
CC50 [4]: > 40 µM (active)

Cn1/c(=N/C(=O)C2CC2)sc2cc(F)cc(F)c21
IC50 (Protein skinhead-1): > 100 µM (inactive)

CO/N=C/c1cc([N+](=O)[O-])ccc1Sc1ccc(C)cc1
EC50 [3]: > 260 µM (inactive)

NNCCc1ccccc1 [PHENELZINE SULFATE]
AC50 [2]: 7.5 µM (active)
